Test results: patent US9855341B2, “Formulations and carrier systems including farnesylthiosalycylic moities” (University of Pittsburgh—Of the Commonwealth System of …, priority 2014, dated 2018)

Tests used:
[1] = mouse, in vivo, iv
Procedure: The blood samples were collected in heparinized tubes at different time points (3 min, 8 min, 15 min, 30 min, 1 h, 2 h, 4 h, 8 h, and 12 h) post-injection. The blood was centrifuged (2,500 rpm, 10 min) and plasma was collected for the analysis. […] Non-compartmental pharmacokinetic analysis was done by WinNonlin. […] At day 1 post-injection, tumor tissues and major organs were collected from the mice. The tissues were weighed and homogenized using Homogenizer PowerGen 500 (Fisher Scientific). […] The solutions were centrifuged (2,500 rpm, 10 min) and the supernatant was used for HPLC measurement.

[2] = Excerpt: Changes in body weight and mouse survival were monitored daily for two weeks. The MTD was defined as the maximal dose that causes neither greater than 15% of body weight loss nor mouse mortality within two weeks after administration. See Lu, J.; Huang, Y.; Zhao, W.; Marquez, R. T.; Meng, X.; Li, J.; Gao, X.; Venkataramanan, R.; Wang, Z.; Li, S., PEG-derivatized embelin as a nanomicellar carrier for delivery of paclitaxel to breast and prostate cancers. Biomaterials, 34, 1591-600 (2013).
[3] = tested on: HCT-116 human colon carcinoma cell line; assay: In vitro cytotoxicity, HCT-116; assay type: cell-based; conditions: HCT-116 cells
Excerpt: Several cancer cell lines were included in the cytotoxicity studies including murine breast cancer cells 4T1.2, human colon carcinoma cell line HCT-116, and two human prostate cancer cell lines PC-3 and DU145. […] A similar result was obtained in human colon cancer cells, HCT-116 as illustrated in FIG. 3B. […] Without limitation to any mechanism, it is likely that FTS is much more readily released from PEG5KFTS2(L) by esterases following intracellular delivery.
Incorporation of an additional disulfide linkage into PEG5K-FTS2(L) led to further improvement in cytotoxicity. […] Without limitation to any mechanism, this observation may, for example, be a result of enhanced intracellular delivery of FTS via PEG5K-S—S-FTS2(L).
The cytotoxicity of drug-free PEG5K-Fmoc-FTS2 and PEG5K-FTS2 micelles was examined in 4T1.2 and HCT-116 tumor cells and compared to free FTS (see FIGS. 12A and 12B, respectively). […] Without limitation to any mechanism, it is likely that the cytotoxicity of PEG-FTS comes from the released FTS following intracellular delivery.
FIGS. 13A-C show the cytotoxicity of TAXOL and PTX formulated in PEG5K-Fmoc-FTS2 micelles in several cancer cell lines.
See Zhang, X.; et al., PEG-farnesylthiosalicylate conjugate as a nanomicellar carrier for delivery of paclitaxel. Bioconjug. Chem., 24, 464-72 (2013). The cytotoxicity of free PEG5K-FTS2, PEG5K-Fmoc-FTS2 and FTS was also examined.

[4] = tested on: 4T1.2 mouse breast cancer cell line; assay: In vitro cytotoxicity, 4T1.2; assay type: cell-based; conditions: 4T1.2 cells
[5] = tested on: PC-3 human prostate cancer cell line; assay: In vitro cytotoxicity, PC-3; assay type: cell-based; conditions: PC-3 cells
Excerpt: FIG. 9B illustrates cytotoxicity of FTS and FTS-amide in a PC-3 human prostate cancer cell line.
As described above, FTS and derivatives thereof can be used in the carrier agents hereof. In a number of embodiments (for example, for drug delivery), biologically active derivatives of FTS are used. […] Similar results were obtained in our in vitro cytotoxicity study with HCT-116 and PC-3 cancer cell lines (see FIGS. 9A and 9B).

[6] = tested on: human prostate cancer xenograft model (PC-3); assay: NIRF optical imaging biodistribution; conditions: PC-3 xenograft, i.v.
Procedure: Biodistribution and tumor-targeting efficiency of PEG5K-Fmoc-FTS2 micelles were tested in a human prostate cancer xenograft model (PC-3). DiD, a hydrophobic near infrared fluorescence (NIRF) dye with high penetration, low tissue absorption and scattering was loaded into the PEG5K-Fmoc-FTS2 micelles for tissue imaging. […] After last imaging at 96 h post-injection, tumors and major organs were excised for ex vivo imaging.
At indicated times (0.5 h, 6 h, 24 h, 48 h, 72 h and 96 h), the mice were scanned using a Carestream Molecular Imaging System, In vivo Multispectral FX PRO, with the excitation at 630 nm and the emission at 700 nm using a 30 s exposure time. The mice were anesthetized by isoflurane inhalation before each imaging. After 96 h, the mice were euthanized by CO2 overdose. The tumor and major organs were excised for ex vivo imaging.

COc1cccc2c1C(=O)c1c(O)c3c(c(O)c1C2=O)C[C@@](O)(C(=O)CO)C[C@@H]3O[C@H]1C[C@H](N)[C@H](O)[C@H](C)O1 [DOX, doxorubicin]
Vd [1]: 7.34 L/kg | decrease in the body weight ([2]; 15 mg DOX/kg): > 15% | mortality ([2]; 15 mg DOX/kg): death of all treated mice | tolerability ([2]; dose of 10 mg/kg (DOX)): well tolerated

CC(C)=CCC/C(C)=C/CC/C(C)=C/CSc1ccccc1C(=O)O [FTS, S-trans, trans-farnesylthiosalicylic acid]
cytotoxicity (tumor cell growth inhibition) [3]: inhibited the tumor cell growth in a concentration-dependent manner | cytotoxicity (tumor cell growth inhibition) [4]: inhibited the tumor cell growth in a concentration-dependent manner

CC(C)=CCC/C(C)=C/CC/C(C)=C/CSc1ccccc1C(N)=O [FTS-amide, S-trans, trans-farnesylthiosalicylic acid amide]
cytotoxicity (tumor cell growth inhibition) [3]: more effective than the parent compound in inhibiting the tumor cell growth | cytotoxicity (tumor cell growth inhibition) [5]: more effective than the parent compound in inhibiting the tumor cell growth

CCCCCCCCCCCCCCCCCCN1C(=CC=CC=CC2=[N+](CCCCCCCCCCCCCCCCCC)c3ccccc3C2(C)C)C(C)(C)c2ccccc21.[O-][Cl+3]([O-])([O-])[O-] [free DiD, 1,1′-dioctadecyl-3,3,3′,3′-tetramethylindodicarbocyanine perchlorate]
tumor accumulation (NIRF imaging) [6]: No obvious tumor accumulation
